Measurements from patent publication US5002943A, “Condensed diazepinones, processes for preparing them and pharmaceutical compositions containing these compounds” (priority 1988, dated 1991).
Counter-ions that a name gives are not always drawn. Like-named read-outs stand apart in the source and are kept apart here.

Experiments:
[1] = target: T1, muscarinic receptors (heart) (Rattus norvegicus, UniProt P10980); assay: biochemical; parameters: species or system male Sprague-Dawley rats; details: whole heart homogenate; 0.3 nanomolar 3H-NMS; 30 C; 45 minutes; pH 7.4; read-out: Receptor Binding Tests IC50, Heart
T1 sequence (P10980 1-466): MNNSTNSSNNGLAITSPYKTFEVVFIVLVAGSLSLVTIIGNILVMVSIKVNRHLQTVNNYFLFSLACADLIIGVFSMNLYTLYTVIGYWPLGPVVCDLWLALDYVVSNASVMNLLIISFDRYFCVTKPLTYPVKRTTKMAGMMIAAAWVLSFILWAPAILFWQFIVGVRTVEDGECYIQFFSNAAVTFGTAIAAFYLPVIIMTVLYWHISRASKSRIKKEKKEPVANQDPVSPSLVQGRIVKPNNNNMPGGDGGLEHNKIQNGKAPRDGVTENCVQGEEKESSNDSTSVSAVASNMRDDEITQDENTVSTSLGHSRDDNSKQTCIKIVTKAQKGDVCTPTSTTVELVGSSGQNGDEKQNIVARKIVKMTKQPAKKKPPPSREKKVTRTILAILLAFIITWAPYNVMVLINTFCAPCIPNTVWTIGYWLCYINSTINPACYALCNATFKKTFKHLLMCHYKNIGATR

[2] = target: muscarinic receptors (submandibular gland) (Rattus norvegicus, UniProt P08483); assay: biochemical; parameters: species or system male Sprague-Dawley rats; details: submandibular gland homogenate; 0.3 nanomolar 3H-NMS; 30 C; 45 minutes; pH 7.4; read-out: Receptor Binding Tests IC50, Submandibular gland
Chain of muscarinic receptors (submandibular gland) (P08483 whole entry): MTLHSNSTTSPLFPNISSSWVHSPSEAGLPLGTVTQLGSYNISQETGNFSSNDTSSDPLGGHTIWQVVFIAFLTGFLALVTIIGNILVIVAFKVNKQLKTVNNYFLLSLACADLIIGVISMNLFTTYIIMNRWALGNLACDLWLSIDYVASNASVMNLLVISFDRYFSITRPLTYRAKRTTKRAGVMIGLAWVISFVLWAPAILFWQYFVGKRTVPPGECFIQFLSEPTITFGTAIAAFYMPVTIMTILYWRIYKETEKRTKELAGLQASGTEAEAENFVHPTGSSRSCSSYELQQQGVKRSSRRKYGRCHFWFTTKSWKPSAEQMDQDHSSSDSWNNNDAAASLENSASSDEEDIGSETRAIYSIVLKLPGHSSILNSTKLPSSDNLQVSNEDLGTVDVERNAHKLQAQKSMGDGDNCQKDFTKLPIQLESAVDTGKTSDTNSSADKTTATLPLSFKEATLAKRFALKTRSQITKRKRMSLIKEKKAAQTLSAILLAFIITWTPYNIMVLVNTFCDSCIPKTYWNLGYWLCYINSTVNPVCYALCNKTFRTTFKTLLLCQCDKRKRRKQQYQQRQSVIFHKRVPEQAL
Protocol: (§1) A. Studies of binding to muscarinic receptors:
(§2) In vitro measurement of the IC50 value
(§3) The organs were donated by male Sprague-Dawley rats weighing 180-220 g. After the heart and submandibular gland and cerebral cortex had been removed, all other steps were carried out in ice cold Hepes HCl buffer (pH 7.4; 100 millimolar NaCl, 10 millimolar MgClz). The whole heart was cut up with scissors. All the organs were then homogenised in a Potter apparatus.
(§4) For the binding test the homogenised organs were diluted as follows:
Submandibular gland 1:400
(§5) The homogenised organs were incubated at a certain concentration of the radioligand and at a series of concentrations of the non-radioactive test substances in an Eppendorf centrifuge tube at 30 C. Incubation lasted 45 minutes. The radioligand used was 0.3 nanomolar 3H-N-methylscopolamine (^3 H-NMS). Incubation was ended by the addition of ice cold buffer followed by vacuum filtration. The filters were rinsed with cold buffer and their radioactivity was determined. It represents the sum of specific and non-specific binding of ^3 H-NMS. The proportion of non-specific binding was defined as the radioactivity which was bound in the presence of 1 micromolar quinuclidinylbenzylate. Each measurement was taken four times. The IC50 values of the non-labelled test substances were determined graphically. They represent that concentration of test substance at which the specific binding of 3H-NMS to the muscarinic receptors in the various organs was inhibited by 50%.

[3] = target: T2, M2 (Rattus norvegicus, UniProt P10980); assay: M1/M2 selectivity in the rat: inhibition of vagal bradycardia (M2); type: in vivo, male THOM rats; details: iv, 5 min
T2 construct: The bradycardia caused by vagus stimulation; from tissue; host or cells: heart of the living rat (male THOM rats, in vivo)
T2 sequence (P10980 1-466): T1 sequence (P10980 1-466)
Description: (§6) B. Investigation of functional selectivity of the antimuscarinic effect
(§7) Substances with antimuscarinic properties inhibit the effects of agonists supplied exogenically or of acetylcholine, which is released from cholinergic nerve endings. The following is a description of some methods that are suitable for the detection of cardioselective antimuscarinic agents.
(§8) The objective of the methods was to confirm the selectivity of the antimuscarinic effect. Those substances which had been selected on the basis of "in vitro" tests were tested for their
(§9) 1. M1 /M2 selectivity in the rat,
(§10) 3. Inhibition of the acetylcholine effect on the bladder, bronchi and heart rate in the guinea pig. 1. M1 /M2 SELECTIVITY IN THE RAT
The method used was described by Hammer and Giachetti (Life Sciences 31, 2991-2998 (1982)). 5 minutes after the intravenous injection of increasing doses of the substance, either the right vagus was electrically stimulated (frequency: 25 Hz; pulse width: 2ms; duration of stimulus: 30s; voltage: supramaximal) or 0.3 mg/kg of McN-A-343 were intravenously injected into male THOM rats. The bradycardia caused by vagus stimulation and the rise in blood pressure caused by McN-A-343 were determined. The dosage of the substances which reduced either the vagal bradycardia (M2) or the rise in blood pressure (M1) by 50% was determined graphically. For the results see Table II.

[4] = target: T3, M1 (Rattus norvegicus, UniProt P08482); assay: M1/M2 selectivity in the rat: inhibition of McN-A-343-induced rise in blood pressure (M1); type: in vivo, male THOM rats; details: iv, 5 min
T3 construct: from tissue; host or cells: living rat (male THOM rats, in vivo); sympathetic ganglia by own knowledge
T3 sequence (P08482 1-460): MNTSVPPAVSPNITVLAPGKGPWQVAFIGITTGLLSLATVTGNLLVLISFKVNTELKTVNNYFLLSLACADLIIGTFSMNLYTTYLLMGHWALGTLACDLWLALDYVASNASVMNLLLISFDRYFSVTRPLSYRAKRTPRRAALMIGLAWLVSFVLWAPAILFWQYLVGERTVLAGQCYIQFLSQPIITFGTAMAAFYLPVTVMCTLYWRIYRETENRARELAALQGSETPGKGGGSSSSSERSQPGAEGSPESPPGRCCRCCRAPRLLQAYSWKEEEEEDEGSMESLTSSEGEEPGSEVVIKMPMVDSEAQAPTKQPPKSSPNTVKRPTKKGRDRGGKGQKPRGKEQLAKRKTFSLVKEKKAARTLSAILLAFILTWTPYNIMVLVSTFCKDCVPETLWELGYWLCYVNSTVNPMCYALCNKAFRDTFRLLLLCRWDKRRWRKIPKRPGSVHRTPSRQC
Description: as §6, §7, §8, §9, §10
The dosage of the substances which reduced either the vagal bradycardia (M2) or the rise in blood pressure (M1) by 50% was determined graphically. For the results see Table II.

[5] = tested on: secretion of saliva; assay: Salivation-inhibiting effect in the rat (pilocarpine-induced saliva secretion); type: in vivo, male THOM rats; details: iv; urethane-anaesthetised rat; i.v.; pilocarpine 2 mg/kg s.c.; read-out: -log ED50, Salivation (converted)
Protocol: as §8
2. Salivation-inhibiting effect on the rat and
2. SALIVATION-INHIBITING EFFECT IN THE RAT
The secretion of saliva was initiated by subcutaneous administration of 2 mg/kg of pilocarpine. The saliva was absorbed with blotting paper and the surface area covered was measured every 5 minutes by planimetry. The dosage of the substance which reduced the volume of saliva by 50% was determined graphically. For the results see Table II.

[6] = tested on: acetylcholine activity on heart rate; assay: Inhibition of the effect of acetylcholine on heart rate in guinea pigs; type: in vivo, guinea pig; details: Cavia porcellus, 5 min
Protocol: (§11) The objective of the methods was to confirm the selectivity of the antimuscarinic effect. Those substances which had been selected on the basis of "in vitro" tests were tested for their 3. […] M1 /M2 SELECTIVITY IN THE RAT 3. INHIBITION OF THE EFFECT OF ACETYLCHOLINE ON THE BLADDER, BRONCHI AND HEART RATE IN GUINEA PIGS 5 minutes after the administration of the test substance, 10 microgram/kg of acetylcholine were simultaneously injected intravenously and intra-arterially into anaesthetised guinea pigs. The heart rate was recorded directly by extracorporeal derivation of the ECG, the expiration resistance according to Konzett-Ro ler and contraction of the exposed bladder. In order to determine the inhibition of the acetylcholine activity on the organs under investigation, dosage/activity curves were recorded and from them -log ED50 values were determined.

[7] = tested on: acetylcholine activity on the bronchi; assay: Inhibition of the effect of acetylcholine on the bronchi in guinea pigs; type: in vivo; details: Cavia porcellus, 5 min; anaesthetised guinea pig; 5 minutes after test substance; 10 microgram/kg acetylcholine; expiration resistance; read-out: -log ED50, Bronchi (converted)
Protocol: as §11

[8] = tested on: acetylcholine activity on the bladder; assay: Inhibition of the effect of acetylcholine on the bladder in guinea pigs; type: in vivo, guinea pig; details: Cavia porcellus, 5 min
Protocol: as §11

[9] = target: muscarinic receptors (cerebral cortex); assay: Muscarinic receptor binding, cerebral cortex (displacement of 3H-N-methylscopolamine); parameters: species or system male Sprague-Dawley rats; details: cerebral cortex homogenate; 0.3 nanomolar 3H-NMS; 30 C; 45 minutes; pH 7.4; read-out: Receptor Binding Tests IC50, Cortex
Protocol: as §1, §2, §3, §4
as §5, with “They represent that concentration of test substance at which the specific binding of 3H-NMS to the muscarinic receptors in the various organs was inhibited by 50%.” left out

[10] = i.v., 5 minutes after injection, vagus stimulation 25 Hz, read-out: -log ED50, Heart (vagal bradycardia, M2) (converted)
[11] = i.v., 5 minutes after injection, 0.3 mg/kg McN-A-343 i.v., read-out: -log ED50, Blood pressure (McN-A-343 pressor response, M1) (converted)
[12] = anaesthetised guinea pig, 5 minutes after test substance, 10 microgram/kg acetylcholine, read-out: -log ED50, Heart (converted)
[13] = anaesthetised guinea pig, 5 minutes after test substance, 10 microgram/kg acetylcholine, contraction of exposed bladder, read-out: -log ED50, Bladder (converted)

IC50 [1] [nM]	IC50 [2] [nM]	ED50 [3, 10] [µmol/kg]	IC50 [9] [nM]	Structure (SMILES)	ED50 [4, 11] [µmol/kg]	ED50 [5] [µmol/kg]	ED50 [6, 12] [µmol/kg]	ED50 [7] [µmol/kg]	ED50 [8, 13] [µmol/kg]	ED50 ([3]; read-out: -log ED50, Heart (vagal bradycardia, M2)) [µmol/kg]	ED50 ([4]; read-out: -log ED50, Blood pressure (McN-A-343 pressor response, M1)) [µmol/kg]	ED50 ([6]; read-out: -log ED50, Heart) [µmol/kg]	ED50 ([8]; read-out: -log ED50, Bladder) [µmol/kg]
9	80	0.0123	–	CN(CCC1CCCN1C)CC(=O)N1c2ccccc2C(=O)Nc2cccnc21 (stereo not drawn) [Substance A, hydrochloride]	0.0871	0.158	0.02	0.0251	0.141	–	–	–	–
10	100	–	70	CCN(CCC1CCCN1C)CC(=O)N1c2cc(Cl)ccc2C(=O)Nc2cccnc21 (stereo not drawn) [Substance B, 9-chloro-5,11-dihydro-11[[[2-(1-methyl-2-pyrrolidinyl)ethyl]ethylamino]acetyl]-6H-pyrido-[2,3-b][1,4]benzodiazepin-6-one]	–	–	0.1	0.191	0.832	–	–	–	–
3	20	–	8	CN(CCC1CCCN1C)CC(=O)N1c2ccccc2NC(=O)c2ccccc21 (stereo not drawn) [Substance C, 5,10-dihydro-5-[[[2-(1-methyl-2-pyrrolidinyl)-ethyl]methylamino]acetyl]-11H-dibenzo[b,e][1,4]-diazepin-11-one hydrochloride]	–	–	0.0288	0.0295	0.234	–	–	–	–
–	–	0.38	–	CCN(CC)CC1CCCCN1CC(=O)N1c2ccccc2C(=O)Nc2cccnc21 (stereo not drawn) [Substance D, 11-[[2-[(diethylamino)methyl]-1-piperidinyl]acetyl]-5,11-dihydro-6H-pyrido[2,3-b][1,4]benzodiazepin-6-one]	2.34	10	–	–	–	–	–	–	–
–	–	–	–	CN1C2CCC1CC(OC(=O)C(CO)c1ccccc1)C2 (stereo not drawn) [Substance F, atropine, reference compound]	–	–	–	–	–	0.0115	0.0457	0.02	0.0933
